US20230257396A1, “MACROCYCLES AND THEIR USE” (BLOSSOMHILL THERAPEUTICS, INC., priority 2020, published 2023)

How the values were obtained:
Experiment in all cases: KINOMEscan kinase binding assay (Eurofins/DiscoveRx), % Ctrl
kinases [1] = target: T1, kinases (Homo sapiens, UniProt P36888, D835Y); conditions: 1 μM; FLT3(D835Y)
T1 construct: purchased Eurofins/DiscoveRx; host or cells: E. coli BL21-derived host (T7 phage display) for most kinases; HEK-293 for the rest
T1 sequence (P36888 27-993 D835Y): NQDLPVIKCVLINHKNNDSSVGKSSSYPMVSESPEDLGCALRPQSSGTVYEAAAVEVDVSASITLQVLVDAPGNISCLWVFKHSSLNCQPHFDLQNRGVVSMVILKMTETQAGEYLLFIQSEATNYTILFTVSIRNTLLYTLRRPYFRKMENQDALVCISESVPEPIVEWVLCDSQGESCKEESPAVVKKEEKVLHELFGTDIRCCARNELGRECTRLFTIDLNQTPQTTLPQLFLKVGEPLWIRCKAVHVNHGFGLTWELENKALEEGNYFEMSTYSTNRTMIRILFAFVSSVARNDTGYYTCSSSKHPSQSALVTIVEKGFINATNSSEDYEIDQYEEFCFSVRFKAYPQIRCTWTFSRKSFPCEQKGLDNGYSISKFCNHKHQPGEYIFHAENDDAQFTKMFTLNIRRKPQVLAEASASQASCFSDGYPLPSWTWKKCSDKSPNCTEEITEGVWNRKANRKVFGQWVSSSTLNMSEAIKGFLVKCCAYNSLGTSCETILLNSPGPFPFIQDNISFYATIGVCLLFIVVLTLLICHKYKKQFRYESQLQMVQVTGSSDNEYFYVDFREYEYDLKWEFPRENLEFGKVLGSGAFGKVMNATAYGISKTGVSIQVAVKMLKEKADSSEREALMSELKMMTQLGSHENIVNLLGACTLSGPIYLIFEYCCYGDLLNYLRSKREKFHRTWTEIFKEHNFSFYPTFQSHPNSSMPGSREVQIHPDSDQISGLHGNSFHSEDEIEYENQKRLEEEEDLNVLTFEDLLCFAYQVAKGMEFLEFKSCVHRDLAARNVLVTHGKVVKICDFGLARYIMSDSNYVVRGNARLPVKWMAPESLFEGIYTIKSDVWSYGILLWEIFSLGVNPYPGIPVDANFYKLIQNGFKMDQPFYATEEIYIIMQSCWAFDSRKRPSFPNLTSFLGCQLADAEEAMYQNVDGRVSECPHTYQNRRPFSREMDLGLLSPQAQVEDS
In short: (§1)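 Competition binding: DNA- or phage-tagged kinases (T7 phage in E. coli BL21, or HEK-293-expressed) with immobilized biotinylated ligand beads and test compound, 1 h at room temperature. Bead-bound kinase eluted and quantified by qPCR; % Ctrl = (compound − positive control)/(negative control − positive control) ×100 at a single compound concentration.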

kinases [2] = target: T2, kinases (Homo sapiens, UniProt P00519, T315I); conditions: 1 μM
T2 construct: purchased Eurofins/DiscoveRx; host or cells: E. coli BL21-derived host (T7 phage display) for most kinases; HEK-293 for the rest
In short: as §1

kinases [3] = target: T3, kinases (Homo sapiens, UniProt P00533, L858R); conditions: 1 μM; EGFR(L858R)
T3 construct: purchased Eurofins/DiscoveRx; host or cells: E. coli BL21-derived host (T7 phage display) for most kinases; HEK-293 for the rest
In short: as §1

kinases [4] = target: T4, kinases (Homo sapiens, UniProt P00519, Q252H); conditions: 1 μM
T4 construct: purchased Eurofins/DiscoveRx; host or cells: E. coli BL21-derived host (T7 phage display) for most kinases; HEK-293 for the rest
In short: as §1

kinases [5] = target: T5, kinases (Homo sapiens, UniProt P00519); conditions: 1 μM
T5 construct: purchased Eurofins/DiscoveRx; host or cells: E. coli BL21-derived host (T7 phage display) for most kinases; HEK-293 for the rest
In short: as §1

kinases [6] = target: T6, kinases (Homo sapiens, UniProt P10721, D816V); conditions: 1 μM; KIT(D816V)
T6 construct: purchased Eurofins/DiscoveRx; host or cells: E. coli BL21-derived host (T7 phage display) for most kinases; HEK-293 for the rest
In short: as §1

kinases [7] = target: T7, kinases (Homo sapiens, UniProt P07949, V804M); conditions: 1 μM; RET(V804M)
T7 construct: purchased Eurofins/DiscoveRx; host or cells: E. coli BL21-derived host (T7 phage display) for most kinases; HEK-293 for the rest
In short: as §1

kinases [8] = target: T8, kinases (Homo sapiens, UniProt P00519, Y253F); conditions: 1 μM; ABL1(Y253F)-phosphorylated
T8 construct: purchased Eurofins/DiscoveRx; host or cells: E. coli BL21-derived host (T7 phage display) for most kinases; HEK-293 for the rest
In short: as §1

kinases [9] = target: T9, kinases (Homo sapiens, UniProt P35916); conditions: 1 μM; FLT4
T9 construct: purchased Eurofins/DiscoveRx; host or cells: E. coli BL21-derived host (T7 phage display) for most kinases; HEK-293 for the rest
In short: as §1

kinases [10] = target: T10, kinases (Homo sapiens, UniProt P10721, T670I/V559D); conditions: 1 μM; KIT(V559D, T670I)
T10 construct: purchased Eurofins/DiscoveRx; host or cells: E. coli BL21-derived host (T7 phage display) for most kinases; HEK-293 for the rest
In short: as §1

kinases [11] = target: T11, kinases (Homo sapiens, UniProt P00533, L858R/T790M); conditions: 1 μM; EGFR(L858R, T790M)
T11 construct: purchased Eurofins/DiscoveRx; host or cells: E. coli BL21-derived host (T7 phage display) for most kinases; HEK-293 for the rest
In short: as §1

kinases [12] = target: T12, kinases (Homo sapiens, UniProt P42684); conditions: 1 μM; ABL2
T12 construct: purchased Eurofins/DiscoveRx; host or cells: E. coli BL21-derived host (T7 phage display) for most kinases; HEK-293 for the rest
In short: as §1

kinases [13] = target: T13, kinases (Homo sapiens, UniProt P17948); conditions: 1 μM; FLT1
T13 construct: purchased Eurofins/DiscoveRx; host or cells: E. coli BL21-derived host (T7 phage display) for most kinases; HEK-293 for the rest
In short: as §1

kinases [14] = target: T14, kinases (Homo sapiens, UniProt P10721, V559D); conditions: 1 μM; KIT(V559D)
T14 construct: purchased Eurofins/DiscoveRx; host or cells: E. coli BL21-derived host (T7 phage display) for most kinases; HEK-293 for the rest
In short: as §1

kinases [15] = target: T15, kinases (Homo sapiens, UniProt P00519, E255K); conditions: 1 μM; ABL1(E255K)-phosphorylated
T15 construct: purchased Eurofins/DiscoveRx; host or cells: E. coli BL21-derived host (T7 phage display) for most kinases; HEK-293 for the rest
In short: as §1

T12 sequence (P42684 whole entry): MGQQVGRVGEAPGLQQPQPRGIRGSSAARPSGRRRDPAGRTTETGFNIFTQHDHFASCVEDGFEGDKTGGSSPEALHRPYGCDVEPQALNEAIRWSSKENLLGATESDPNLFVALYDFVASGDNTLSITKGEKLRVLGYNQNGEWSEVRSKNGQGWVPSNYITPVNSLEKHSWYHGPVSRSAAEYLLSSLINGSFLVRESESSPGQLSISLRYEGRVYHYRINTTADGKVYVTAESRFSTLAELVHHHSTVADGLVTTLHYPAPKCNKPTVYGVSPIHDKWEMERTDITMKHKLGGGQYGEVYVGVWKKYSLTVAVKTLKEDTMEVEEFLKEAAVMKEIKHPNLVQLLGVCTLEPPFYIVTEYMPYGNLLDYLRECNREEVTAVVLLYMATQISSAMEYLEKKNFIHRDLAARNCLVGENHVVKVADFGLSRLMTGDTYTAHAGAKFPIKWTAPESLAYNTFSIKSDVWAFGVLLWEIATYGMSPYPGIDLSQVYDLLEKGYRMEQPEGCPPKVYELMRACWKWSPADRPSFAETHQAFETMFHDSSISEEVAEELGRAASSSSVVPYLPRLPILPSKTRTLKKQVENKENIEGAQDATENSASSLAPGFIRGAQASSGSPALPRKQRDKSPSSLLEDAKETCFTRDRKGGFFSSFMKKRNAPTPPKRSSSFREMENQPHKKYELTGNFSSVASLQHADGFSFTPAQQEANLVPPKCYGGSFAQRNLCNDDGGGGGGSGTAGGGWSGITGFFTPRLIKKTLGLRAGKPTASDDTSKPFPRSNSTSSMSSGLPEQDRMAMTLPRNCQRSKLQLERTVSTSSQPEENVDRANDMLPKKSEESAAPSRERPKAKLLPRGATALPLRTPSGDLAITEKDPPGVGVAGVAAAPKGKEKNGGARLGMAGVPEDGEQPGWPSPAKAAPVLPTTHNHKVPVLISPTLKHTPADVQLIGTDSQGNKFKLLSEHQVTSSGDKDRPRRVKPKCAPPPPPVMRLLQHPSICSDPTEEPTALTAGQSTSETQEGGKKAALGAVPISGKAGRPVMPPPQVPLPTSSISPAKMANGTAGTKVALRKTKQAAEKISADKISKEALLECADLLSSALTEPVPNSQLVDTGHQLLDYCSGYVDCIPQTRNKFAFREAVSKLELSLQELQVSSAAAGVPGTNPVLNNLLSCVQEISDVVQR
T10 sequence (P10721 26-976 V559D/T670I): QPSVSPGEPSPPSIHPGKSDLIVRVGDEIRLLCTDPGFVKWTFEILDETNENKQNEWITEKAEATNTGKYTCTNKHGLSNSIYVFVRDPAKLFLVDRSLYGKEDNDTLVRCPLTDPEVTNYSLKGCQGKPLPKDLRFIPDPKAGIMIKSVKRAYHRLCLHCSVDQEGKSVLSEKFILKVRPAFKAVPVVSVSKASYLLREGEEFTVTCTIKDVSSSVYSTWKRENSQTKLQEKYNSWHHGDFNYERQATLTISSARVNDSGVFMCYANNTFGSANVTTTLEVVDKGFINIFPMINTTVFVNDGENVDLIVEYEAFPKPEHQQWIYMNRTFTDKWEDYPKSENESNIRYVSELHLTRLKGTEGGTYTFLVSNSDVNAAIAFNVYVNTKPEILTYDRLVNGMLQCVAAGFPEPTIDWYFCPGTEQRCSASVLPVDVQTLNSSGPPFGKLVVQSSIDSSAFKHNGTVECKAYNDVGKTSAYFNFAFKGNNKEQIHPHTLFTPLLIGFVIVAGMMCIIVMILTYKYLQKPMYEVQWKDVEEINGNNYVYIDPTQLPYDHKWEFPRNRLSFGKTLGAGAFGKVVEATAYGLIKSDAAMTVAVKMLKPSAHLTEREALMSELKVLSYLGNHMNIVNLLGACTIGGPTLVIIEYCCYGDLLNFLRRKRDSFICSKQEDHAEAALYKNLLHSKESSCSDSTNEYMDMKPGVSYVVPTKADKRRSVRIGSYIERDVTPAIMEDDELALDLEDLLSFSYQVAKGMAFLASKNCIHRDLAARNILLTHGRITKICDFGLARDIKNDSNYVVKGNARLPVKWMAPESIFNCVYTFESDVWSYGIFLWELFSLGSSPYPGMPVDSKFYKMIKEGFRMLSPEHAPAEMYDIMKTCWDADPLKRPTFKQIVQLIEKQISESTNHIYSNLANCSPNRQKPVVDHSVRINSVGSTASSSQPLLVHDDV
T7 sequence (P07949 29-1114 V804M): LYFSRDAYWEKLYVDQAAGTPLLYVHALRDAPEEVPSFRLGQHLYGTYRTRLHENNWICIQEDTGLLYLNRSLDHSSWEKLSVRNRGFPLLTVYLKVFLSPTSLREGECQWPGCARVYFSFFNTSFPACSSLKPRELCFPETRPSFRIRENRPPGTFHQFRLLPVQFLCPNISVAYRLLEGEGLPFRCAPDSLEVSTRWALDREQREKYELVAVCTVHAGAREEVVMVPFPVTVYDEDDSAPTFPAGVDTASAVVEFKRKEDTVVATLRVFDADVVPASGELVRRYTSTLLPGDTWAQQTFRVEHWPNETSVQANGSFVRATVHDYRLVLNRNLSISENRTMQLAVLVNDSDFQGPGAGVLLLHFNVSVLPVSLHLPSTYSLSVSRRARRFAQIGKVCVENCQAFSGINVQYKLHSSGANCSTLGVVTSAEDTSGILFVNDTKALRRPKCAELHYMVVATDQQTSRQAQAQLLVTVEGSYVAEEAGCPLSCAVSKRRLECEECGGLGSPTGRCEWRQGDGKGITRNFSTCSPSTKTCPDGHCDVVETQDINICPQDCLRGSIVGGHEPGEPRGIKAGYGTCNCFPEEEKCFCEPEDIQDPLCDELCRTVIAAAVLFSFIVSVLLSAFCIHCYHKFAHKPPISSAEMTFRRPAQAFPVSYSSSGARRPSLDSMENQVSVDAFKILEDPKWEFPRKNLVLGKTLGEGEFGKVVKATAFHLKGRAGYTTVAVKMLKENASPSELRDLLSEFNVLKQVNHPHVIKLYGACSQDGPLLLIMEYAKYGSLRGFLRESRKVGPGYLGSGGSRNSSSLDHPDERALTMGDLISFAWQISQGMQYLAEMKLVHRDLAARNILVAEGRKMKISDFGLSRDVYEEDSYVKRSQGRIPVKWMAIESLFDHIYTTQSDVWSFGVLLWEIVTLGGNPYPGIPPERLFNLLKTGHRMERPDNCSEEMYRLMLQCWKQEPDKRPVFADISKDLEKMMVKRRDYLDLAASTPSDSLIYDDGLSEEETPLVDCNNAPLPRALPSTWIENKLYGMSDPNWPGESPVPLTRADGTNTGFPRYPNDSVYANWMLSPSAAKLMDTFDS
T9 sequence (P35916 25-1363): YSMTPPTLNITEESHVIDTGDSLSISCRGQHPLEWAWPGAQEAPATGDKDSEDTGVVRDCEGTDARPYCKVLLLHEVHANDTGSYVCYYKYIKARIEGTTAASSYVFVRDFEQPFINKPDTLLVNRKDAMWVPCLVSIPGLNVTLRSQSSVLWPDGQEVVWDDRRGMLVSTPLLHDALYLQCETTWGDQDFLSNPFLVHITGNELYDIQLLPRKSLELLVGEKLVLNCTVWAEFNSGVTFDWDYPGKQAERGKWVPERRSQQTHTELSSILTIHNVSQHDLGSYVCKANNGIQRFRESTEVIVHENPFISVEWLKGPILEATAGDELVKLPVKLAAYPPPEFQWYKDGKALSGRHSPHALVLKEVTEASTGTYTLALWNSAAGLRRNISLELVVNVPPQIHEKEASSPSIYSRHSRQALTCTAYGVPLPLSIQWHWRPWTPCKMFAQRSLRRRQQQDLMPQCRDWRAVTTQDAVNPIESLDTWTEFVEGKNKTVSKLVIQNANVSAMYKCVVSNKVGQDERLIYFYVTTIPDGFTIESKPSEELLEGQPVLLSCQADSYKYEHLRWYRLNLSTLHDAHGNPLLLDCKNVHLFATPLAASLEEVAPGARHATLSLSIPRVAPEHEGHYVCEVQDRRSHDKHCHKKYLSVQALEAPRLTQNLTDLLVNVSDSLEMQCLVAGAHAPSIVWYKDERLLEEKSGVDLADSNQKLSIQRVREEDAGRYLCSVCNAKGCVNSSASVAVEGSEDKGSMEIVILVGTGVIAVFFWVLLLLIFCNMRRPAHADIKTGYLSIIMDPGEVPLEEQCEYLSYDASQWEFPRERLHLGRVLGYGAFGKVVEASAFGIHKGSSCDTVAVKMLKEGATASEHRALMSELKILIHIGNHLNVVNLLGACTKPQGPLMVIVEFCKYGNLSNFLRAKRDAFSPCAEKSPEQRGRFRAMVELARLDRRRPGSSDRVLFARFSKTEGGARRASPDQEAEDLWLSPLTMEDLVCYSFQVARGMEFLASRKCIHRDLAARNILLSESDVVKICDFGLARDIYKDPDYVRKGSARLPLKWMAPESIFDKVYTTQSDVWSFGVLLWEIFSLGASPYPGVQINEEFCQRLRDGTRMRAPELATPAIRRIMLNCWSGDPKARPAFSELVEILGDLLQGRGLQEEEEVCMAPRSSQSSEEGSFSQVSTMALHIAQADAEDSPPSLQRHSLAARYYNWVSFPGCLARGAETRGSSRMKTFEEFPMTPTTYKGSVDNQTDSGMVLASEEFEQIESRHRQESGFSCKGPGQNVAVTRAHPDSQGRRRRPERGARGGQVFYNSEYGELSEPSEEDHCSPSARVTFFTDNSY
T6 sequence (P10721 26-976 D816V): as the sequence (P10721 26-976 V559D/T670I) above, with D534V, I645T, D791V counted along it
T14 sequence (P10721 26-976 V559D): as the sequence (P10721 26-976 V559D/T670I) above, with I645T counted along it

Row | % Ctrl, FLT3(D835Y) (kinases [1]) | % Ctrl, ABL1(T315I)-nonphosphorylated (kinases [2]) | % Ctrl, ABL1(T315I)-phosphorylated (kinases [2]) | % Ctrl, EGFR(L858R) (kinases [3]) | % Ctrl, ABL1(Q252H)-nonphosphorylated (kinases [4]) | % Ctrl, ABL1(Q252H)-phosphorylated (kinases [4]) | % Ctrl, ABL1-nonphosphorylated (kinases [5]) | % Ctrl, ABL1-phosphorylated (kinases [5]) | % Ctrl, KIT(D816V) (kinases [6]) | % Ctrl, RET(V804M) (kinases [7]) | % Ctrl, ABL1(Y253F)-phosphorylated (kinases [8]) | % Ctrl, FLT4 (kinases [9]) | % Ctrl, KIT(V559D, T670I) (kinases [10]) | % Ctrl, EGFR(L858R, T790M) (kinases [11]) | % Ctrl, ABL2 (kinases [12]) | % Ctrl, FLT1 (kinases [13]) | % Ctrl, KIT(V559D) (kinases [14]) | % Ctrl, ABL1(E255K)-phosphorylated (kinases [15]) | SMILES
1 | 3.1 % Ctrl | 94 % Ctrl | 78 % Ctrl | 95 % Ctrl | 61 % Ctrl | 49 % Ctrl | 65 % Ctrl | 68 % Ctrl | 34 % Ctrl | 69 % Ctrl | 57 % Ctrl | 98 % Ctrl | 7.4 % Ctrl | 95 % Ctrl | 96 % Ctrl | 89 % Ctrl | 47 % Ctrl | 70 % Ctrl | Cc1cc2c([nH]1)/C=C1\C(=O)Nc3cc(Cl)c(cc31)OCCO[C@@H](C(=O)NC1CNC1)CN(C)C2=O [Ex. 133, [7R,16a(17)Z]-N-(azetidin-3-yl)-19-chloro-2,5-dimethyl-4,16-dioxo-4,5,6,7,9,10,15,16-octahydro-1H-12,14-(ethanediylidene)dipyrrolo[3,2-i:3′,4′-l][1,4,7]dioxazacyclopentadecine-7-carboxamide]
2 | 10 % Ctrl | 84 % Ctrl | 46 % Ctrl | 89 % Ctrl | 32 % Ctrl | 18 % Ctrl | 46 % Ctrl | 38 % Ctrl | 56 % Ctrl | 81 % Ctrl | 32 % Ctrl | 90 % Ctrl | 3.9 % Ctrl | 92 % Ctrl | 77 % Ctrl | 97 % Ctrl | 43 % Ctrl | 50 % Ctrl | Cc1cc2c([nH]1)/C=C1\C(=O)Nc3cc(Cl)c(cc31)OCCO[C@@H](C(=O)NC1CCNCC1)CN(C)C2=O [Ex. 134, [7R,16a(17)Z]-19-chloro-2,5-dimethyl-4,16-dioxo-N-(piperidin-4-yl)-4,5,6,7,9,10,15,16-octahydro-1H-12,14-(ethaneidylidene)dipyrrolo[3,2-i:3′,4′-l][1,4,7]dioxazacyclopentadecine-7-carboxamide]
3 | 13 % Ctrl | 94 % Ctrl | 72 % Ctrl | 93 % Ctrl | 43 % Ctrl | 47 % Ctrl | 33 % Ctrl | 58 % Ctrl | 76 % Ctrl | 77 % Ctrl | 55 % Ctrl | 100 % Ctrl | 6.3 % Ctrl | 93 % Ctrl | 85 % Ctrl | 85 % Ctrl | 45 % Ctrl | 56 % Ctrl | CNC(=O)[C@H]1CN(C)C(=O)c2cc(C)[nH]c2/C=C2\C(=O)Nc3cc(Cl)c(cc32)OCCO1 [Ex. 135, [7R,16a(17)Z]-19-chloro-N,2,5-trimethyl-4,16-dioxo-4,5,6,7,9,10,15,16-octahydro-1H-12,14-(ethanediylidene)dipyrrolo[3,2-i:3′,4′-l][1,4,7]dioxazacyclopentadecine-7-carboxamide]
4 | 2.6 % Ctrl | 77 % Ctrl | 37 % Ctrl | 90 % Ctrl | 24 % Ctrl | 14 % Ctrl | 36 % Ctrl | 25 % Ctrl | 36 % Ctrl | 64 % Ctrl | 16 % Ctrl | 100 % Ctrl | 3.2 % Ctrl | 93 % Ctrl | 77 % Ctrl | 97 % Ctrl | 36 % Ctrl | 36 % Ctrl | Cc1cc2c([nH]1)/C=C1\C(=O)Nc3cc(Cl)c(cc31)OCCO[C@@H](C(=O)N[C@@H]1CCNC1)CN(C)C2=O [Ex. 136, [7R,16a(17)Z]-19-chloro-2,5-dimethyl-4,16-dioxo-N-[(3R)-pyrrolidin-3-yl]-4,5,6,7,9,10,15,16-octahydro-1H-12,14-(ethanediylidene)dipyrrolo[3,2-i:3′,4′-l][1,4,7]dioxazacyclopentadecine-7-carboxamide]
5 | 14 % Ctrl | 81 % Ctrl | 69 % Ctrl | 99 % Ctrl | 48 % Ctrl | 51 % Ctrl | 43 % Ctrl | 61 % Ctrl | 67 % Ctrl | 57 % Ctrl | 60 % Ctrl | 95 % Ctrl | 27 % Ctrl | 93 % Ctrl | 99 % Ctrl | 88 % Ctrl | 75 % Ctrl | 64 % Ctrl | Cc1cc2c([nH]1)/C=C1\C(=O)Nc3cc(Cl)c(cc31)OCCO[C@@H](C(=O)N(C)C)CN(C)C2=O [Ex. 137, [7R,16a(17)Z]-19-chloro-N,N,2,5-tetramethyl-4,16-dioxo-4,5,6,7,9,10,15,16-octahydro-1H-12,14-(ethanediylidene)dipyrrolo[3,2-i:3′,4′-l][1,4,7]dioxazacyclopentadecine-7-carboxamide]
